Source: paper PMC6269587 (Iranian Journal of Pharmaceutical Research : IJPR, 2018)

Columns and labels:
[1] = biological target: T1, Acetylcholinesterase (AChE) (Homo sapiens, UniProt P22303); assay: biochemical; settings: for AChE Inhibitory IC50 ± SD: Ellman's method, 412 nm, 25 °C, pH 8.0
T1 construct: purchased Sigma (Germany)
Method: AChE inhibitory effect of petroleum ether, chloroform, ethyl acetate, and methanol fractions were carried out by the Ellman′s method ([16]).

[2] = DPPH radical scavenging activity (antioxidant activity); settings: DPPH method, 30 min, 517 nm, triplicate
Method: The DPPH method is based on the free radical scavenging activity ([17]). briefly, 2 mL of DPPH solution in methanol (4×10^-5 g/mL) was prepared and added to 1 mL of different concentrations of sample solution in methanol (0.1, 0.5 and 1.0 mg/mL). The mixture was kept in the dark for 30 min at room temperature. The antioxidant activity was measured by Shimadzu, UV/VIS model 160A spectrophotometer at 517 nm.
All the measurements were done in triplicate. The IC50 values were calculated as means ± SD and butylated hydroxytoluene (BHT) was used as positive control.

[3] = tested on: triple transgenic mice of Alzheimer's disease model; settings: cited from earlier work
[4] = tested on: brain cells; settings: mice; cited from earlier work

T1 sequence (P22303 32-614, species assumed): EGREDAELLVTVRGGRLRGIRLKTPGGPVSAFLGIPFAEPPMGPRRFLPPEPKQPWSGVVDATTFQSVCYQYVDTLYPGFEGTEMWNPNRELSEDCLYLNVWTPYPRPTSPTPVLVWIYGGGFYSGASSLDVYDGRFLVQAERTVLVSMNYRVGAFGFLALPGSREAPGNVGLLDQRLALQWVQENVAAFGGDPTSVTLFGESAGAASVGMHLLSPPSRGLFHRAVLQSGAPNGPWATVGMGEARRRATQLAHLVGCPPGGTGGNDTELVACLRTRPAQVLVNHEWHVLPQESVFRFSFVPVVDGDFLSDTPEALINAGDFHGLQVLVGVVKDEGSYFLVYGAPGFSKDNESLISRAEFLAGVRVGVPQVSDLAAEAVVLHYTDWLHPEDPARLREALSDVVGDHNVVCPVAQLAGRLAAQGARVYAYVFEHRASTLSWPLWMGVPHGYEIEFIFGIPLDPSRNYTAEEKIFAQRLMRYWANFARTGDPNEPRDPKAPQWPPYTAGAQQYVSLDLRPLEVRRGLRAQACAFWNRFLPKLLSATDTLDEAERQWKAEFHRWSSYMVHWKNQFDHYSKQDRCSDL

O=c1c(O[C@@H]2O[C@H](CO)[C@@H](O)[C@H](O)[C@H]2O)c(-c2ccc(O)cc2)oc2cc(O)cc(O)c12 [Astragalin, astragalin]
IC50 [1]: 162 µM | Antioxidant Activity IC50 ± SD [2]: 26.92 ± 3.5 mg/L

O=c1c(O)c(-c2ccc(O)c(O)c2)oc2cc(O)cc(O)c12 [Quercetin, quercetin]
effect on performance, emotional and cognitive behavior [3]: protective effects on performance, emotional and cognitive behavior have been confirmed | IC50 [1]: 220 µM | neuroprotective effect [4]: strong protective effects of this compound on the brain cells | Antioxidant Activity IC50 ± SD [2]: 10.24 ± 1.3 mg/L

Cc1cc(C(C)(C)C)c(O)c(C(C)(C)C)c1 [BHT, butylated hydroxytoluene, reference compound]
Antioxidant Activity IC50 ± SD [2]: 19.50 ± 2.8 mg/L

O=C(O)c1ccccc1O [Salicylic acid]
AChE Inhibitory IC50 ± SD [1]: - | Antioxidant Activity IC50 ± SD [2]: 114.57 ± 1.0 mg/L

O=C(O)C=Cc1ccc(O)cc1 [p-Coumaric acid]
AChE Inhibitory IC50 ± SD [1]: - | Antioxidant Activity IC50 ± SD [2]: 110.33 ± 1.2 mg/L

O=C(O)/C=C/c1ccc(O)c(O)c1 [Caffeic acid]
IC50 [1]: 66.9 µM | Antioxidant Activity IC50 ± SD [2]: 11.41 ± 6.0 mg/L
